The test system of the first data set is HeLa cells stably expressing HaloGFP. The data set can be described thus: Chloroalkane penetration assay (CAPA), membrane permeability and cellular uptake. The data set is classed as cell-based.
Details: not given
The source says:
Since PSD-95 is located intracellularly, it is essential for any drug targeting PSD-95 to efficiently cross the cell membrane. To assess the cellular permeability and delivery to the cytosol of the compounds as defined herein, the cellular chloroalkane penetration assay (CAPA) may be used (Peraro et al. 2018). This assay takes advantage of a modified haloalkane dehalogenase designed to covalently bind chloroalkane (CA) molecules. A HeLa cell line expressing a fusion protein comprising a HaloTag, a green fluorescent protein (GFP) and a mitochondria-targeting peptide is used to report cytosolic delivery. The general format of the CAPA is a pulse-chase assay (Deprey & Kritzer, 2020). Cells expressing the HaloTag enzyme are incubated with CA-tagged peptides. When these CA-peptides penetrate the cell membrane and reach the cytosol, they will bind to and react with the HaloTag (pulse step). Following a washing step, the cells are incubated with a CA-tagged dye that quantitatively penetrates the cell membrane and reacts with remaining unreacted HaloTag sites (chase step). Flow cytometry is used to measure the fluorescence intensity of the cells and the measured fluorescence is inversely proportional to the amount of CA-peptides that reach the penetrated the cells and can thus be used to assess cytosolic delivery. The obtained data is commonly expressed as CP50 values, the concentration at which 50% cell penetration is observed. The CP50 value of a compound may be measured as described in example 4.
The membrane permeability of compounds 10 to 75 was determined in HeLa cells stably expressing HaloGFP exclusively located in the cytosol. Cells were seeded at a density of 40.000 cells/well one day prior to the experiment. After the growth media was aspirated and replaced by 100 μL of Opti-MEM, 25 μL of a prepared serial dilution of the ligand in Opti-MEM was added to the cells (constant DMSO concentration), and the plate was incubated for 4 h at 37° C. and 5% CO2. The contents of the wells were aspirated, and cells were washed with fresh Opti-MEM for 15 min. After aspiration of the wash, the cells were incubated with TAMRA-CA (5 μM) for 15 min. After aspiration of the chase solution, cells were washed with Opti-MEM for 30 min. Following removal of the wash, cells were trypsinized, resuspended in PBS (2% FBS), and analyzed using a benchtop flow cytometer. Using no ligand and no TAMRA-CA control well, the obtained fluorescence intensity data was normalized and plotted as dose-response curves. Reported CP50 values represent half-maximum red fluorescence which behaves inverse to cell penetration of the ligand.
Compound `CC[C@H](C)[C@H](NC(=O)CCOCCOCCN(CCOCCOCCC(=O)N[C@H](C(=O)N[C@@H](CCC(=O)O)C(=O)N[C@H](C(=O)N[C@@H](CC(=O)O)C(=O)N[C@H](C(=O)O)C(C)C)[C@@H](C)O)[C@@H](C)CC)C(=O)[C@H](Cc1ccccc1)NC(=O)[C@H](CCC(N)=O)NC(=O)CNC(=O)[C@H](CCCNC(=N)N)NC(=O)[C@H](CC(C)C)NC(=O)[C@H](CC(C)C)NC(=O)[C@H](CCCNC(=N)N)NC(=O)[C@H](CC(C)C)NC(=O)[C@H](Cc1ccc(O)cc1)NC(=O)[C@@H](NC(=O)[C@H](CC(C)C)NC(=O)[C@@H]1CCCN1C(=O)CCC(=O)NCCOCCOCCCCCCCl)[C@@H](C)CC)C(=O)N[C@@H](CCC(=O)O)C(=O)N[C@H](C(=O)N[C@@H](CC(=O)O)C(=O)N[C@H](C(=O)O)C(C)C)[C@@H](C)O` [Compound 57] came in with a CP50 of 17.9 ± 0.3 µM.
On the same count and under the same terms, in the case of `CC[C@@H](C)[C@@H](NC(=O)[C@@H](CC(C)C)NC(=O)[C@H]1CCCN1C(=O)CCC(=O)NCCOCCOCCCCCCCl)C(=O)N[C@H](Cc1ccc(O)cc1)C(=O)N[C@H](CC(C)C)C(=O)N[C@H](CCCNC(=N)N)C(=O)N[C@H](CC(C)C)C(=O)N[C@H](CC(C)C)C(=O)N[C@H](CCCNC(=N)N)C(=O)NCC(=O)N[C@H](CCC(N)=O)C(=O)N[C@H](Cc1ccccc1)C(=O)N(CCOCCOCCC(=O)N[C@H](C(=O)N[C@@H](CCC(=O)O)C(=O)N[C@H](C(=O)N[C@@H](CC(=O)O)C(=O)N[C@H](C(=O)O)C(C)C)[C@@H](C)O)[C@@H](C)CC)CCOCCOCCC(=O)N[C@H](C(=O)N[C@@H](CCC(=O)O)C(=O)N[C@H](C(=O)N[C@@H](CC(=O)O)C(=O)N[C@H](C(=O)O)C(C)C)[C@@H](C)O)[C@@H](C)CC` [Compound 59] it was 67.2 ± 5.3 µM; in that of `CC[C@H](C)[C@H](NC(=O)CCOCCOCCN(CCOCCOCCC(=O)N[C@H](C(=O)N[C@@H](CCC(=O)O)C(=O)N[C@H](C(=O)N[C@@H](CC(=O)O)C(=O)N[C@H](C(=O)O)C(C)C)[C@@H](C)O)[C@@H](C)CC)C(=O)[C@H](CCCCNC(=O)CCC(=O)NCCOCCOCCCCCCCl)NC(=O)CCCNC(=O)CC[C@@H]1NC(=O)[C@@H](CCCNC(=N)N)NC(=O)[C@H](CCCNC(=N)N)NC(=O)[C@@H](CCCNC(=N)N)NC(=O)[C@H](CCCNC(=N)N)NC(=O)[C@H](Cc2ccc3ccccc3c2)NC(=O)[C@@H](Cc2ccccc2)NC(=O)[C@H](Cc2ccccc2)NC1=O)C(=O)N[C@@H](CCC(=O)O)C(=O)N[C@H](C(=O)N[C@@H](CC(=O)O)C(=O)N[C@H](C(=O)O)C(C)C)[C@@H](C)O` [Compound 63], 11.2 ± 0.7 µM.
On the same count and under the same terms, in the case of `CC[C@H](C)[C@H](NC(=O)CCOCCOCCN(CCOCCOCCC(=O)N[C@H](C(=O)N[C@@H](CCC(=O)O)C(=O)N[C@H](C(=O)N[C@@H](CC(=O)O)C(=O)N[C@H](C(=O)O)C(C)C)[C@@H](C)O)[C@@H](C)CC)C(=O)[C@H](CCCNC(=N)N)NC(=O)[C@H](CCCNC(=N)N)NC(=O)[C@H](CCCNC(=N)N)NC(=O)[C@H](CCCNC(=N)N)NC(=O)[C@H](CCCNC(=N)N)NC(=O)[C@H](CCCNC(=N)N)NC(=O)[C@H](CCCNC(=N)N)NC(=O)CCC(=O)NCCOCCOCCCCCCCl)C(=O)N[C@@H](CCC(=O)O)C(=O)N[C@H](C(=O)N[C@@H](CC(=O)O)C(=O)N[C@H](C(=O)O)C(C)C)[C@@H](C)O` [Compound 64] it was 1.66 ± 0.43 µM; in that of `CC[C@H](C)[C@H](NC(=O)CCOCCOCCN(CCOCCOCCC(=O)N[C@H](C(=O)N[C@@H](CCC(=O)O)C(=O)N[C@H](C(=O)N[C@@H](CC(=O)O)C(=O)N[C@H](C(=O)O)C(C)C)[C@@H](C)O)[C@@H](C)CC)C(=O)[C@H](CCCNC(=N)N)NC(=O)[C@H](CCCNC(=N)N)NC(=O)[C@H](CCCNC(=N)N)NC(=O)[C@H](CCCNC(=N)N)NC(=O)[C@H](CCCNC(=N)N)NC(=O)CCC(=O)NCCOCCOCCCCCCCl)C(=O)N[C@@H](CCC(=O)O)C(=O)N[C@H](C(=O)N[C@@H](CC(=O)O)C(=O)N[C@H](C(=O)O)C(C)C)[C@@H](C)O` [Compound 65], 1.17 ± 0.37 µM; in that of `CC[C@H](C)[C@H](NC(=O)CCOCCOCCN(CCOCCOCCC(=O)N[C@H](C(=O)N[C@@H](CCC(=O)O)C(=O)N[C@H](C(=O)N[C@@H](CC(=O)O)C(=O)N[C@H](C(=O)O)C(C)C)[C@@H](C)O)[C@@H](C)CC)C(=O)[C@H](CCCNC(=N)N)NC(=O)[C@H](CCCNC(=N)N)NC(=O)[C@H](CCCNC(=N)N)NC(=O)CCC(=O)NCCOCCOCCCCCCCl)C(=O)N[C@@H](CCC(=O)O)C(=O)N[C@H](C(=O)N[C@@H](CC(=O)O)C(=O)N[C@H](C(=O)O)C(C)C)[C@@H](C)O` [Compound 66], 3.71 ± 0.30 µM.
Same read-out and setting: in the case of `CC(C)C[C@H](NC(=O)[C@@H](NC(=O)[C@H](CCC(=O)O)NC(=O)[C@H](CCCCN)NC(=O)CCOCCOCCN(CCOCCOCCC(=O)N[C@@H](CCCCN)C(=O)N[C@@H](CCC(=O)O)C(=O)N[C@H](C(=O)N[C@@H](CC(C)C)C(=O)N[C@H](C(=O)O)C(C)C)[C@@H](C)O)C(=O)[C@H](CCCNC(=N)N)NC(=O)[C@H](CCCNC(=N)N)NC(=O)[C@H](CCCNC(=N)N)NC(=O)[C@H](CCCNC(=N)N)NC(=O)[C@H](CCCNC(=N)N)NC(=O)[C@H](CCCNC(=N)N)NC(=O)[C@H](CCCNC(=N)N)NC(=O)CCC(=O)NCCOCCOCCCCCCCl)[C@@H](C)O)C(=O)N[C@H](C(=O)O)C(C)C` [Compound 68] it was 0.58 ± 0.09 µM.
Take `CC(C)C[C@H](NC(=O)[C@@H](NC(=O)[C@H](CCC(=O)O)NC(=O)[C@H](CCCCN)NC(=O)CCOCCOCCN(CCOCCOCCC(=O)N[C@@H](CCCCN)C(=O)N[C@@H](CCC(=O)O)C(=O)N[C@H](C(=O)N[C@@H](CC(C)C)C(=O)N[C@H](C(=O)O)C(C)C)[C@@H](C)O)C(=O)[C@H](CCCNC(=N)N)NC(=O)[C@H](CCCNC(=N)N)NC(=O)[C@H](CCCNC(=N)N)NC(=O)[C@H](CCCNC(=N)N)NC(=O)[C@H](CCCNC(=N)N)NC(=O)[C@H](CCCNC(=N)N)NC(=O)CCC(=O)NCCOCCOCCCCCCCl)[C@@H](C)O)C(=O)N[C@H](C(=O)O)C(C)C` [Compound 70]: the CP50 is 0.51 ± 0.08 µM.
Still for that read-out and setting: as for `CC(C)C[C@H](NC(=O)[C@@H](NC(=O)[C@H](CCC(=O)O)NC(=O)[C@H](CCCCN)NC(=O)CCOCCOCCN(CCOCCOCCC(=O)N[C@@H](CCCCN)C(=O)N[C@@H](CCC(=O)O)C(=O)N[C@H](C(=O)N[C@@H](CC(C)C)C(=O)N[C@H](C(=O)O)C(C)C)[C@@H](C)O)C(=O)[C@H](CCCNC(=N)N)NC(=O)[C@H](CCCNC(=N)N)NC(=O)[C@H](CCCNC(=N)N)NC(=O)[C@H](CCCNC(=N)N)NC(=O)[C@H](CCCNC(=N)N)NC(=O)CCC(=O)NCCOCCOCCCCCCCl)[C@@H](C)O)C(=O)N[C@H](C(=O)O)C(C)C` [Compound 72], the figure is 0.66 ± 0.14 µM.
The same measure, in the same setting: in the case of `CC(C)C[C@H](NC(=O)[C@@H](NC(=O)[C@H](CCC(=O)O)NC(=O)[C@H](CCCCN)NC(=O)CCOCCOCCN(CCOCCOCCC(=O)N[C@@H](CCCCN)C(=O)N[C@@H](CCC(=O)O)C(=O)N[C@H](C(=O)N[C@@H](CC(C)C)C(=O)N[C@H](C(=O)O)C(C)C)[C@@H](C)O)C(=O)[C@H](CCCNC(=N)N)NC(=O)[C@H](CCCNC(=N)N)NC(=O)[C@H](CCCNC(=N)N)NC(=O)[C@H](CCCNC(=N)N)NC(=O)CCC(=O)NCCOCCOCCCCCCCl)[C@@H](C)O)C(=O)N[C@H](C(=O)O)C(C)C` [Compound 74] it was 0.37 ± 0.08 µM; in that of `CC(C)C[C@H](NC(=O)[C@@H](NC(=O)[C@H](CCC(=O)O)NC(=O)[C@H](CCCCN)NC(=O)CCOCCOCCN(CCOCCOCCC(=O)N[C@@H](CCCCN)C(=O)N[C@@H](CCC(=O)O)C(=O)N[C@H](C(=O)N[C@@H](CC(C)C)C(=O)N[C@H](C(=O)O)C(C)C)[C@@H](C)O)C(=O)[C@H](CCCNC(=N)N)NC(=O)[C@H](CCCNC(=N)N)NC(=O)[C@H](CCCNC(=N)N)NC(=O)CCC(=O)NCCOCCOCCCCCCCl)[C@@H](C)O)C(=O)N[C@H](C(=O)O)C(C)C` [Compound 75], 7.36 ± 0.31 µM.

Staying with this data set, now noted: CA-tagged NPEG4-(IETDV)2 with various CPP-tags, 4 h at 37° C.; mean ± SEM (Table 11, FIG. 8).
`CC[C@H](C)[C@H](NC(=O)CCOCCOCCN(CCOCCOCCC(=O)N[C@H](C(=O)N[C@@H](CCC(=O)O)C(=O)N[C@H](C(=O)N[C@@H](CC(=O)O)C(=O)N[C@H](C(=O)O)C(C)C)[C@@H](C)O)[C@@H](C)CC)C(=O)[C@@H]1CC(=O)NC[C@H](NC(=O)CCC(=O)NCCOCCOCCCCCCCl)C(=O)N[C@@H](CCCCN)C(=O)N[C@@H](C)C(=O)N2CCC[C@H]2C(=O)N[C@@H](CCC(=O)O)C(=O)N[C@@H]([C@@H](C)O)C(=O)N[C@@H](C)C(=O)N[C@@H](CC(C)C)C(=O)N1)C(=O)N[C@@H](CCC(=O)O)C(=O)N[C@H](C(=O)N[C@@H](CC(=O)O)C(=O)N[C@H](C(=O)O)C(C)C)[C@@H](C)O` [Compound 61] displayed a CP50 of 13.2 ± 0.4 µM.

Source of the values: US20240245793A1, “PSD-95 INHIBITORS AND USES THEREOF” (priority 2021, published 2024).
